Legend:
[1] = system: A549.CD19 tumor spheroids; test: Rescue treatment: cytolytic activity of chronically stimulated CAR-T cells, 3D spheroids, A549.CD19; type: cell-based, human; settings: day 9
[2] = system: Granta-519 tumor spheroids; test: Rescue treatment: cytolytic activity of chronically stimulated CAR-T cells, 3D spheroids, Granta-519; type: cell-based, human; settings: day 9
T cells = test: T cell function and exhaustion of engineered T cells in presence of DGKi (summary of observations); type: cell-based, human
From the text: In some aspects, the provided methods enhance or modulate proliferation and/or activity of T cell activity associated with administration of the T cell therapy (e.g. CAR-expressing T cells).
Thus, while in some cases agents that increase or potentiate T cell activity may drive the cells to an exhausted state, it is found herein that activity of such DGKi, e.g., Compound 17, to exert a potentiating effect on T cell activity is decoupled from T cell exhaustion. In some embodiments, the provided methods involving compound administration of such DGKi, e.g., Compound 17, is capable of potentiating activity of T cells and delaying, limiting, reducing, inhibiting or preventing exhaustion.
(§1) These observations were made using a chronic stimulation assay to render T cells (e.g. CAR T cells) hypofunctional (e.g. reduced cytolysis and IL-2 secretion). Using this model, engineered T cells (e.g. CAR T cells or eTCR T cells) were examined to assess impact of DGKi, such as Compound 17, on function of the engineered T cells when present during (concurrent) or following (rescue) exposure to conditions leading to a hypofunctional, exhaustive state.

CAR-expressing T cells = test: Chronic stimulation assay, concurrent treatment: tumor cell numbers, spheroid volume and cytokines during re-challenge of CAR-expressing T cells (FIGS. 5A-6B); type: cell-based, human
From the text: FIGS. 5A-5B and 6A-6B show cytolytic activity and cytokine production during re-challenge of CAR-expressing T cells chronically stimulated in the presence of Compound 17 (concurrent treatment).
as §1

anti-CD19 CAR-T cells [3] = test: Phenotype of chronically stimulated CAR-T cells concurrently treated; type: cell-based, human; settings: concurrent treatment 0.1-1000 nM, chronic stimulation 7 days
From the text: (§2) T cell compositions containing T cells expressing an exemplary anti-CD19 CAR were generated from leukapheresis samples from two healthy human adult donors by a process that included immunoaffinity-based selection of T cells by separately selecting CD4+ and CD8+ cells from the samples, resulting in two compositions enriched for CD4+ and CD8+ cells, respectively, per donor. Cells of the enriched CD4+ and CD8+ compositions were separately activated with anti-CD3/anti-CD28 beads and subjected to lentiviral transduction with a vector encoding an anti-CD19 CAR. The anti-CD19 CAR contained an anti-CD19 single-chain variable fragment (scFv) derived from a murine antibody (variable region derived from FMC63), an immunoglobulin-derived spacer, a transmembrane domain derived from CD28, a costimulatory region derived from 4-1BB, and a CD3-zeta intracellular signaling domain. The expression construct in the viral vector further contained sequences encoding a surrogate surface marker for CAR expression, which was separated from the CAR-encoding sequence by a T2A ribosome skip sequence. Transduced CD4+ or CD8+ T cell populations then were separately incubated in the presence of stimulating reagents for cell expansion. Expanded CD4+ and CD8+ cells were formulated and cryopreserved separately and stored. […]

[4] = system: Raji lymphoma tumor cells; test: In vivo anti-tumor effect of dosing regimens with anti-CD19 CAR T cells, Raji-rFluc NSG mice (Example 6)
Procedure: The in vivo anti-tumor effects of different dosing regimens for Compound 17 in combination with anti-CD19 CAR T cells were assessed.
Following CAR-T cell administration, mice received one of three different Compound 17 dosing regimens or a vehicle control (n=8 per group). Specifically, mice received Compound 17 or vehicle control once daily (i) on Days 1-14 (“Early”), (ii) on Days 14-42 (“Delayed”), or (iii) on Days 1-28 (“Continuous”) of the combination therapy. All doses of Compound 17 were 0.3 mg/kg and were administered orally. […] Flow cytometry for assessing CD4:CD8 ratio was performed at Day 15.

anti-CD19 CAR-T cells [5] = test: CAR-T cell phenotype after acute stimulation (flow cytometry); type: cell-based, human
From the text: as §2, with “domain.” for “domain. The expression construct in the viral vector further contained sequences encoding a surrogate surface marker for CAR expression, which was separated from the CAR-encoding sequence by a T2A ribosome skip sequence. Transduced CD4+ or CD8+ T cell populations then were separately incubated in the presence of stimulating reagents for cell expansion. Expanded CD4+ and CD8+ cells were formulated and cryopreserved separately and stored.”
Prior to use, the cryopreserved CD4+ and CD8+ CAR-engineered cell compositions were thawed and combined at approximately a 1:1 CD4:CD8 ratio for each donor to prepare a combined CD4+ CAR+ and CD8+ CAR+ T cell composition. The effects of treatment with Compound 17 at various concentrations (0.1 nM, 1 nM, 10 nM, 100 nM, or 1000 nM) added at day 0 during stimulation of the combined CAR-T cell composition with a plate-bound CAR-specific anti-idiotypic antibody (see, e.g., WO2018/023100) or during co-culture with CD19-expressing cells was then assessed.
Approximately 20,000 cells of the combined CAR-T cell composition were stimulated with 3 μg/ml or 30 μg/ml plate-bound CAR-specific anti-idiotypic antibody in the presence of Compound 17. After a 48-hour stimulation, T cells were surface stained with antibodies for various activation and differentiation markers and analyzed by flow cytometry for the percent of cells positive for the assessed markers (% positive) and for mean fluorescence intensity (MFI) of expression for the assessed markers. […]

[6] = 0.3 mg/kg oral once daily from Day 1, relative to vehicle
[7] = 48-hour stimulation, 3 or 30 μg/mL CAR-specific anti-idiotypic antibody

Compound: CC[C@H]1CN([C@@H](CC)c2ccc(C(F)(F)F)cc2)[C@H](CC)CN1c1nc(=O)n(C)c2ccc(C#N)nc12 [Compound 17, 4-((2S,5R)-2,5-diethyl-4-((S)-1-(4-(trifluoromethyl)phenyl)propyl)piperazin-1-yl)-1-methyl-2-oxo-1,2-dihydropyrido[3,2-d]pyrimidine-6-carbonitrile]
- cytolytic activity of CAR T cells against A549.CD19 spheroids [1]: improved the cytolytic activity of CAR T cells against both A549.CD19 and Granta-519 tumor spheroids
- cytolytic activity of CAR T cells against Granta-519 spheroids [2]: improved the cytolytic activity of CAR T cells against both A549.CD19 and Granta-519 tumor spheroids
- T cell function (cytokine production, cytotoxicity, expansion, proliferation, persistence) (T cells): improves T cell function
- effect on T cell exhaustion (T cells; chronic (long-term) stimulation): reverse, delay, or prevent T cell exhaustion
- effect of concurrent treatment on hypofunctionality upon rechallenge with antigen (CAR-expressing T cells): reversed activity and phenotypes associated with T cell hypofunctionality and preserved more effector function
- populations of highly activated CAR-T cells (CD69 and PD-1 high) (anti-CD19 CAR-T cells [3]): increased populations of highly activated CAR-T cells
- tumor suppression (tumor control index), Early regimen ([4]; 0.3 mg/kg oral once daily Days 1-14 with CAR T cells, relative to vehicle): enhanced tumor suppression
- survival, Continuous regimen ([4]; 0.3 mg/kg oral once daily Days 1-28 with 1×10^6 CAR T cells): improved survival
- tumor burden, Continuous regimen ([4]; 0.3 mg/kg oral once daily Days 1-28 with CAR T cells): reduced tumor burden
- tumor suppression (tumor control index), Continuous regimen ([4]; 0.3 mg/kg oral once daily Days 1-28 with CAR T cells, relative to vehicle): enhanced tumor suppression
- tumor suppression (tumor control index), Delayed regimen ([4]; 0.3 mg/kg oral once daily Days 14-42 with CAR T cells, relative to vehicle): did not
- CAR T cell expansion, Day 15, Early or Continuous regimen [4, 6]: increased CAR T cell expansion
- CD4:CD8 ratio, Day 15, Early or Continuous regimen [4, 6]: increase in CD4:CD8 ratio
- CAR T cell expansion and CD4:CD8 ratio, Day 15, Delayed regimen ([4]; single 0.3 mg/kg oral dose, relative to vehicle): did not
- expression of CD27 and CD62L (anti-CD19 CAR-T cells [5]; [7]): decreased expression of CD27 and CD62L
- expression of CD69 and PD-1 (anti-CD19 CAR-T cells [5]; [7]): increased expression of CD69 and PD-1
- effect on cell phenotype, dose dependence (anti-CD19 CAR-T cells [5]; in particular 30 μg/mL CAR-specific anti-idiotypic antibody): dose-dependent

From patent US20260355239A1, “COMBINATION OF A T CELL THERAPY AND CONTINUOUS OR INTERMITTENT DGK INHIBITOR DOSING” (Juno Therapeutics, Inc., priority 2022, published 2026)
